According to publication PMC10115881, “Disrupting the α-synuclein-ESCRT interaction with a peptide inhibitor mitigates neurodegeneration in preclinical models of Parkinson’s disease” (Nature Communications, 2023):

Experiments:
[1] = test system: endogenous a-syn in SNCA triplication fibroblasts; test: a-syn immunofluorescence in SNCA triplication fibroblasts; assay type: cell-based, human
Text: Fig. 6 PDpep1.3 reduces endogenous a-syn levels and rescues lysosomal activity in human PD cell models. A Representative images of fibroblasts from a PD patient with SNCA triplication transduced with Scramble1.3-RFP or PDpep1.3-RFP (scale bars = 10 µm). B Quantification of relative a-syn fluorescence in RFP-positive fibroblasts. Bars represent means ± s.e.m. (one-way ANOVA, F(3, 36) = 6.159; P = 0.0017 followed by Dunnett’s post-test; n = 3). C Endolysosomal flux assay using confocal microscopy in SNCA triplication fibroblasts transduced with AAV-Scramble1.3-RFP or AAV-PDpep1.3-RFP. Cells were treated as indicated with Bafilomycin A1 (Baf). Bars represent means ± s.e.m. (nested one-way ANOVA, F(3, 10) = = 23.70; P < 0.0001 followed by Dunnett’s post-test; n = 3). D Representative images of human iPSC-derived dopaminergic neurons with A53T a-syn mutation or isogenic controls without a-syn mutation. These iPSC-derived dopaminergic neurons were transduced with Scramble1.3-RFP or PDpep1.3-RFP and immunostained with anti-a-syn, anti-TH, or anti-LAMP1 antibodies (scale bars = 5 μm). E Quantification of relative a-syn fluorescence intensity in RFP-positive A53T mutant and control iPSC-derived dopaminergic neurons. Bars represent means ± s.e.m. […] F Quantification of relative LAMP1 fluorescence intensity in RFP-positive A53T mutant and control iPSC-derived dopaminergic neurons. […]

[2] = test system: a-syn in iPSC-derived dopaminergic neurons; test: a-syn fluorescence in iPSC-derived dopaminergic neurons; assay type: cell-based, human; conditions: A53T a-syn iPSC-derived dopaminergic neurons
Procedure: A53T a-syn iCell Dopa neurons (catalog #R1109) and isogenic control iCell Dopa neurons (catalog #R1088) were purchased from Fujifilm Cellular Dynamics (Madison, WI, USA) and cultured as per the manufacturer’s instructions. Briefly, cells were plated in complete maintenance medium provided by the manufacturer on poly-L-ornithine/laminin coated μ plates (ibidi). Cells recovered from thawing for 24 h and then were transduced with AAV-Scramble1.3-RFP or AAV-PDpep1.3-RFP at MOI of 3000 for 48 h at which time media was completely changed. Cells were fixed using 4% PFA at 7 days post-plating.
Confocal images of immunofluorescent staining were acquired with a Zeiss LSM880 confocal microscope equipped with 405, 488, 555, and 639 nm laser lines. All images were taken within the linear range at constant gain and pinhole settings at optimal resolution settings determined by the software. […]
Confocal images of primary cortical neurons, iPSC-derived dopaminergic neurons, and LAMP1 staining within the SN were processed using Imaris software (Oxford instruments). […] Mean pixel intensity per GFP^+ cell (for experiments using GFP-tagged peptides) or RFP^+ cell (for experiments using RFP-tagged peptides) was calculated for a-syn or LAMP1 signal using the software’s surfaces module. […]

How did the “Effect on a-syn fluorescence in fibroblasts” value [1] turn out when DEEIERQLKALG [PDpep1.3] was run?
Its value is “reduced a-syn fluorescence”.

And the “Effect on a-syn levels in presence of Bafilomycin A1” value ([1]; + Bafilomycin A1)?
Its value is “could not reduce a-syn levels”.

What about the “Effect on a-syn levels, iPSC neurons” value [2] of the same sequence?
Its value is “returned levels of a-syn, including oligomeric a-syn, as well as LAMP1 levels to those of isogenic controls”.
